Counter-ions that a name gives are not always drawn.
Legend:
Rev-Erb alpha = target: T1, Rev-Erb alpha (Homo sapiens, UniProt P20393); assay: M2H (mammalian two-hybrid) cellular activation assay of Rev-Erb alpha; format: cell-based; conditions: M2H assay, HEK293 cells; for EC50: Gal4-Rev-Erb alpha / VP16-NCoR, luciferase reporter; for Emax: relative to DMSO, at the tested dose, read-out: TOP activation
T1 sequence (P20393 284-614 limits assumed): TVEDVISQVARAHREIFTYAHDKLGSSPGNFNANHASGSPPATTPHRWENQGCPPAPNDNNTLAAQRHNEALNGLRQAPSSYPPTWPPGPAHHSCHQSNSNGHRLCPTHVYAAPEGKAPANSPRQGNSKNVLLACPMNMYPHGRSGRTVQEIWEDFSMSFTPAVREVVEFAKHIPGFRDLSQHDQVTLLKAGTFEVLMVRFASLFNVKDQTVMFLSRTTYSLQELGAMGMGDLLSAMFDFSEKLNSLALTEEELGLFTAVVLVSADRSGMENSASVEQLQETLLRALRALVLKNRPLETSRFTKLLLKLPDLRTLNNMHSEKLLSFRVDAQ
Summary of the method: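 Six-point dose-response, 18 h, 37 °C, serum-free, in HEK293 cells carrying a Gal4-RE luciferase reporter with Gal4-Rev-Erb alpha or beta plus VP16-NCoR (corepressor interaction readout). EC50 and TOP activation (%) derived from luminescence across four experiments.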

Question: For `COc1ncccc1-c1ccc(C(F)(F)F)cc1Oc1nn2c(Cl)nnc2cc1C` [Cpd.5-24, 3-chloro-7-methyl-6-((2-(2-methoxypyridin-3-yl))-5-(trifluoromethyl)phenoxy)-[1,2,4]triazolo[4,3-b]pyridazine], which EC50 (Rev-Erb alpha) is on record?
Answer: 1000 to 6000 nM

Question: What about the melting point of the same molecule?
Answer: 176 to 178 °C

Question: For `COc1ncc(-c2cc(Cl)ccc2Oc2nn3c(Cl)nnc3c3ccccc23)cn1` [Cpd.5-57, 3-chloro-6-(4-chloro-2-(2-methoxypyrimidin-5-yl)phenoxy)-[1,2,4]triazolo[3,4-a]phthalazine], which EC50 (Rev-Erb alpha) is on record?
Answer: 100 to 1000 nM

Question: And the melting point?
Answer: 213 to 215 °C

Question: Which EC50 (Rev-Erb alpha) does the source give for `Fc1cccc(-c2cc(F)ccc2Oc2ccc3nnc(Cl)n3n2)c1` [Cpd.4-120, 3-chloro-6-(3′,5-difluorobiphenyl-2-yloxy)-[1,2,4]triazolo[4,3-b]pyridazine] here?
Answer: 100 to 1000 nM

Question: What about the melting point of the same molecule?
Answer: 106.2 °C

Question: With `Fc1ccc(Oc2ccc3nnc(Cl)n3n2)c(-c2ccccc2)c1` [Cpd.4-15, 6-(5-fluoro-biphenyl-2-yloxy)-3-chloro-[1,2,4]triazolo[4,3-b]pyridazine] as the molecule, how does the EC50 (Rev-Erb alpha) read?
Answer: 100 to 1000 nM

Question: What about the melting point of the same molecule?
Answer: 148.4 °C

Question: Which results are given for `CCCCNc1ccc(-c2ccccc2)c(Oc2ccc3nnc(Cl)n3n2)c1` [Cpd.4-50, 3-chloro-6-(4-N-butylamino-biphenyl-2-yloxy)-[1,2,4]triazolo[4,3-b]pyridazine]?
Answer: EC50 (Rev-Erb alpha): 100 to 1000 nM; melting point: 132 to 135 °C

Question: What does the source list for `CCCNc1ccc(Oc2ccc3nnc(Cl)n3n2)c(-c2ccccc2)c1` [Cpd.4-56, 3-chloro-6-(5-propylamino-biphenyl-2-yloxy)-[1,2,4]triazolo[4,3-b]pyridazine]?
Answer: EC50 (Rev-Erb alpha): 100 to 1000 nM; melting point: 55 to 58 °C

Question: What does the source list for `COc1ncc(-c2cc(Cl)ccc2Oc2nn3c(Cl)nnc3cc2C)cn1` [Cpd.5-56, 3-chloro-6-(4-chloro-2-(2-methoxypyrimidin-5-yl)phenoxy)-7-methyl-[1,2,4]triazolo[4,3-b]pyridazine]?
Answer: EC50 (Rev-Erb alpha): 1000 to 6000 nM; melting point: 189 to 192 °C

Question: Which EC50 (Rev-Erb alpha) does the source give for `Fc1cc(Oc2ccc3nnc(Cl)n3n2)c(-c2ccccc2)cc1F` [Cpd.4-26, 6-(4,5-difluoro-biphenyl-2-yloxy)-3-chloro-[1,2,4]triazolo[4,3-b]pyridazine] here?
Answer: 100 to 1000 nM

Question: And the melting point?
Answer: 125.6 °C

Question: With `COc1ncc(F)cc1-c1ccc(C(F)(F)F)cc1Oc1cc(C)c2nnc(Cl)n2n1` [Cpd.4-193, 3-chloro-8-methyl-6-((2-(2-methoxy-5-fluoropyridin-3-yl))-5-(trifluoromethyl)-phenoxy)-[1,2,4]triazolo[4,3-b]pyridazine] as the molecule, how does the EC50 (Rev-Erb alpha) read?
Answer: 100 to 1000 nM

Question: And the melting point?
Answer: 130 to 132 °C

Question: For `CCc1nnc2c(C)cc(Oc3cc(C(F)(F)F)ccc3-c3cncnc3)nn12` [Cpd.5-48, 3-ethyl-8-methyl-6-(2-(pyrimidin-5-yl)-5-(trifluoromethyl)phenoxy)-[1,2,4]triazolo[4,3-b]pyridazine], which EC50 (Rev-Erb alpha) is on record?
Answer: 1000 to 6000 nM

Question: And the melting point?
Answer: 182 to 184 °C

Question: With `COc1ncccc1-c1ccc(C(F)(F)F)cc1Oc1cc(C)c2nnc(Cl)n2n1` [Cpd.5-23, 3-chloro-6-(2-(2-methoxypyridin-3-yl)-5-(trifluoromethyl)phenoxy)-8-methyl-[1,2,4]triazolo[4,3-b]pyridazine] as the molecule, how does the EC50 (Rev-Erb alpha) read?
Answer: 1000 to 6000 nM

Question: And the melting point?
Answer: 156 to 158 °C

Question: For `FC(F)(F)c1ccc(-c2ccccc2)c(Oc2nn3c(Cl)nnc3cc2-c2ccccc2)c1` [Cpd.5-5, 3-chloro-7-phenyl-6-(4-trifluoromethyl-biphenyl-2-yloxy)-[1,2,4]triazolo[4,3-b]pyridazine], which EC50 (Rev-Erb alpha) is on record?
Answer: 100 to 1000 nM

Question: What about the melting point of the same molecule?
Answer: 190 to 192 °C

Question: Which results are given for `Cc1cc2nnc(Cl)n2nc1Oc1cc(C(F)(F)F)ccc1-c1ccccc1` [Cpd.5-7, 3-chloro-7-methyl-6-(4-trifluoromethyl-biphenyl-2-yloxy)-[1,2,4]triazolo[4,3-b]pyridazine]?
Answer: EC50 (Rev-Erb alpha): 100 to 1000 nM; melting point: 163 to 165 °C

Question: With `O=[N+]([O-])c1cccc(-c2cc(F)ccc2Oc2ccc3nnc(Cl)n3n2)c1` [Cpd.4-187, 3-chloro-6-(5-fluoro-3′-nitrobiphenyl-2-yloxy)-[1,2,4]triazolo[4,3-b]pyridazine] as the molecule, how does the EC50 (Rev-Erb alpha) read?
Answer: 1000 to 6000 nM

Question: And the melting point?
Answer: 190.5 °C

Question: With `Cc1ccc2c(c1)c(Oc1cc(C(F)(F)F)ccc1-c1ccccc1)nn1c(Cl)nnc21` [Cpd.5-10, 3-chloro-6-(4-trifluoromethyl-biphenyl-2-yloxy)-8-methyl-[1,2,4]triazolo[3,4-a]phthalazine] as the molecule, how does the EC50 (Rev-Erb alpha) read?
Answer: 100 to 1000 nM

Question: What about the melting point of the same molecule?
Answer: 195 to 197 °C

Question: Which EC50 (Rev-Erb alpha) does the source give for `COC(=O)c1cccc(-c2ccccc2Oc2ccc3nnc(Cl)n3n2)c1` [Cpd.4-140, 3-Chloro-6-(3′-(methyloxycarbonyl)biphenyl-2-yloxy)-[1,2,4]triazolo[4,3-b]pyridazine] here?
Answer: > 6000 nM

Question: What about the Emax (Rev-Erb alpha) of the same molecule?
Answer: > 130%

Question: And the melting point?
Answer: 236 to 246 °C

Question: With `Clc1ccc(Oc2ccc3nnc(Cl)n3n2)c(-c2ccccc2)c1` [Cpd.4-35, 6-(5-chloro-biphenyl-2-yloxy)-3-chloro-[1,2,4]triazolo[4,3-b]pyridazine] as the molecule, how does the EC50 (Rev-Erb alpha) read?
Answer: 100 to 1000 nM

Question: What about the melting point of the same molecule?
Answer: 166.2 °C

Question: Which EC50 (Rev-Erb alpha) does the source give for `CCN(CC)c1ccc(Oc2ccc3nnc(Cl)n3n2)c(-c2ccccc2)c1` [Cpd.4-55, 3-chloro-6-(5-diethylamino-biphenyl-2-yloxy)-[1,2,4]triazolo[4,3-b]pyridazine] here?
Answer: < 100 nM

Question: What about the melting point of the same molecule?
Answer: 55 to 58 °C

Question: For `CCC(=O)Nc1ccc(Oc2ccc3nnc(Cl)n3n2)c(-c2ccccc2)c1` [Cpd.4-191, 3-chloro-6-(5-ethylcarbonylamino-biphenyl-2-yloxy)-[1,2,4]triazolo[4,3-b]pyridazine], which EC50 (Rev-Erb alpha) is on record?
Answer: 1000 to 6000 nM

Question: And the melting point?
Answer: 163 to 165 °C

Question: Which EC50 (Rev-Erb alpha) does the source give for `COc1ncc(F)cc1-c1ccc(C(F)(F)F)cc1Oc1nn2c(Cl)nnc2cc1C` [Cpd.5-41, 3-chloro-7-methyl-6-((2-(2-methoxy-5-fluoropyridin-3-yl))-5-(trifluoromethyl)phenoxy)-[1,2,4]triazolo[4,3-b]pyridazine] here?
Answer: 100 to 1000 nM

Question: What about the melting point of the same molecule?
Answer: 163 to 166 °C

Question: For `Fc1ccc(-c2cc(F)ccc2Oc2ccc3nnc(Cl)n3n2)cc1` [Cpd.4-116, 3-chloro-6-(5,4′-difluorobiphenyl-2-yloxy)-[1,2,4]triazolo[4,3-b]pyridazine], which EC50 (Rev-Erb alpha) is on record?
Answer: 100 to 1000 nM

Question: And the melting point?
Answer: 141.1 °C

Question: With `Oc1ccc(Oc2ccc3nnc(Cl)n3n2)c(-c2ccccc2)c1` [Cpd.4-32, 6-(5-hydroxy-biphenyl-2-yloxy)-3-chloro-[1,2,4]triazolo[4,3-b]pyridazine] as the molecule, how does the EC50 (Rev-Erb alpha) read?
Answer: 1000 to 6000 nM

Question: And the melting point?
Answer: 267.7 °C

Question: Which results are given for `COc1ncc(-c2ccc(C(F)(F)F)cc2Oc2nn3c(Cl)nnc3c3ccccc23)c(OC)n1` [Cpd.5-54, 3-chloro-6-(2-(2,4-dimethoxypyrimidin-5-yl)-5-(trifluoromethyl)phenoxy)-[1,2,4]triazolo[3,4-a]phthalazine]?
Answer: EC50 (Rev-Erb alpha): > 6000 nM; Emax (Rev-Erb alpha): > 130%; melting point: 240 °C

Question: With `CC(NCCc1ccccc1)c1ccc(Oc2ccc3nnc(Cl)n3n2)c(-c2ccccc2)c1` (stereo not shown) [Cpd.4-165, 3-chloro-6-(5-(methylphenethylaminomethyl)biphenyl-2-yloxy)-[1,2,4]triazolo[4,3-b]pyridazine] as the molecule, how does the melting point read?
Answer: 114.3 to 117 °C

Question: For `CNC(Cc1ccccc1)c1ccc(Oc2ccc3nnc(Cl)n3n2)c(-c2ccccc2)c1` (stereo not shown) [Cpd.4-158, 3-chloro-6-(5-(benzylmethylaminomethyl)biphenyl-2-yloxy)-[1,2,4]triazolo[4,3-b]pyridazine], which melting point is on record?
Answer: 60.8 to 62.5 °C

Question: With `NC(=O)c1cccc(-c2ccc(C(F)(F)F)cc2Oc2ccc3nnc(Cl)n3n2)c1` (as salt: sodium) [Cpd.4-72, 3-chloro-6-(4-trifluoromethyl-3′-aminocarbonyl-biphenyl-2-yloxy)-[1,2,4]triazolo[4,3-b]pyridazine] as the molecule, how does the melting point read?
Answer: 217.7 to 220 °C

Question: For `NCc1ccc(-c2ccccc2)c(Oc2ccc3nnc(Cl)n3n2)c1` (as salt: sodium) [Cpd.4-65, 3-chloro-6-(4-aminomethyl-biphenyl-2-yloxy)-[1,2,4]triazolo[4,3-b]pyridazine], which melting point is on record?
Answer: 164.6 to 167.7 °C

Question: For `FC(F)(F)c1ccc(-c2nccs2)c(Oc2ccc3nnc(Cl)n3n2)c1` (as salt: potassium) [Cpd.4-105, 3-chloro-6-(2-(thiazol-2-yl)-5-(trifluoromethyl)phenoxy)-[1,2,4]triazolo[4,3-b]pyridazine], which melting point is on record?
Answer: 171 to 173 °C

Question: For `CC(NC1CCCCC1)c1ccc(Oc2ccc3nnc(Cl)n3n2)c(-c2ccccc2)c1` (stereo not shown) [Cpd.4-167, 3-chloro-6-(5-(methyl-cyclohexylaminomethyl)biphenyl-2-yloxy)-[1,2,4]triazolo[4,3-b]pyridazine], which melting point is on record?
Answer: 50.6 °C

Question: Which melting point does the source give for `FC(F)(F)c1ccc(-c2cscn2)c(Oc2ccc3nnc(Cl)n3n2)c1` (as salt: potassium) [Cpd.4-106, 3-chloro-6-(2-(thiazol-4-yl)-5-(trifluoromethyl)phenoxy)-[1,2,4]triazolo[4,3-b]pyridazine] here?
Answer: 191 to 192 °C

Question: With `OCc1ccc(Oc2ccc3nnc(Cl)n3n2)c(-c2ccccc2)c1` (as salt: sodium) [Cpd.4-66, 3-chloro-6-(5-hydroxymethyl-biphenyl-2-yloxy)-[1,2,4]triazolo[4,3-b]pyridazine] as the molecule, how does the melting point read?
Answer: 72 °C

Question: For `FC(F)(F)c1ccc(-c2ccccc2)c(Oc2nn3c(Cl)nnc3cc2C2CC2)c1` [Cpd.5-14, 3-chloro-7-cyclopropyl-6-(4-trifluoromethyl-biphenyl-2-yloxy)-[1,2,4]triazolo[4,3-b]pyridazine], which melting point is on record?
Answer: 130 to 133 °C

Question: With `COC(=O)c1ccc(Oc2ccc3nnc(Cl)n3n2)c(-c2ccccc2)c1` (as salt: sodium) [Cpd.4-69, 3-chloro-6-(5-methyloxycarbonyl-biphenyl-2-yloxy)-[1,2,4]triazolo[4,3-b]pyridazine] as the molecule, how does the melting point read?
Answer: 75.9 to 78.8 °C

— US9586963B2 (GENFIT, priority 2011, dated 2017)
